According to patent US9000174B2, “4-phenylsulfonamidopiperidines as calcium channel blockers” (Purdue Pharma L.P., priority 2004, dated 2015):
pIC50: −log10 of the molar value. Structures can show the parent of a compound that is named as a salt.

Key:
[1] = biological target: T1, N-type calcium channel (NTCC) (Homo sapiens, UniProt Q00975); assay: FLIPR calcium mobilization (and/or electrophysiological) assay for N-type calcium channel; type: cell-based; settings: calcium mobilization and/or electrophysiological in vitro assay; differentiated IMR32 cells, 90 mM KCl, 5 μM nitrendipine
T1 construct: endogenous in cells; host or cells: differentiated IMR32 cells (ATCC)
T1 sequence (Q00975 whole entry): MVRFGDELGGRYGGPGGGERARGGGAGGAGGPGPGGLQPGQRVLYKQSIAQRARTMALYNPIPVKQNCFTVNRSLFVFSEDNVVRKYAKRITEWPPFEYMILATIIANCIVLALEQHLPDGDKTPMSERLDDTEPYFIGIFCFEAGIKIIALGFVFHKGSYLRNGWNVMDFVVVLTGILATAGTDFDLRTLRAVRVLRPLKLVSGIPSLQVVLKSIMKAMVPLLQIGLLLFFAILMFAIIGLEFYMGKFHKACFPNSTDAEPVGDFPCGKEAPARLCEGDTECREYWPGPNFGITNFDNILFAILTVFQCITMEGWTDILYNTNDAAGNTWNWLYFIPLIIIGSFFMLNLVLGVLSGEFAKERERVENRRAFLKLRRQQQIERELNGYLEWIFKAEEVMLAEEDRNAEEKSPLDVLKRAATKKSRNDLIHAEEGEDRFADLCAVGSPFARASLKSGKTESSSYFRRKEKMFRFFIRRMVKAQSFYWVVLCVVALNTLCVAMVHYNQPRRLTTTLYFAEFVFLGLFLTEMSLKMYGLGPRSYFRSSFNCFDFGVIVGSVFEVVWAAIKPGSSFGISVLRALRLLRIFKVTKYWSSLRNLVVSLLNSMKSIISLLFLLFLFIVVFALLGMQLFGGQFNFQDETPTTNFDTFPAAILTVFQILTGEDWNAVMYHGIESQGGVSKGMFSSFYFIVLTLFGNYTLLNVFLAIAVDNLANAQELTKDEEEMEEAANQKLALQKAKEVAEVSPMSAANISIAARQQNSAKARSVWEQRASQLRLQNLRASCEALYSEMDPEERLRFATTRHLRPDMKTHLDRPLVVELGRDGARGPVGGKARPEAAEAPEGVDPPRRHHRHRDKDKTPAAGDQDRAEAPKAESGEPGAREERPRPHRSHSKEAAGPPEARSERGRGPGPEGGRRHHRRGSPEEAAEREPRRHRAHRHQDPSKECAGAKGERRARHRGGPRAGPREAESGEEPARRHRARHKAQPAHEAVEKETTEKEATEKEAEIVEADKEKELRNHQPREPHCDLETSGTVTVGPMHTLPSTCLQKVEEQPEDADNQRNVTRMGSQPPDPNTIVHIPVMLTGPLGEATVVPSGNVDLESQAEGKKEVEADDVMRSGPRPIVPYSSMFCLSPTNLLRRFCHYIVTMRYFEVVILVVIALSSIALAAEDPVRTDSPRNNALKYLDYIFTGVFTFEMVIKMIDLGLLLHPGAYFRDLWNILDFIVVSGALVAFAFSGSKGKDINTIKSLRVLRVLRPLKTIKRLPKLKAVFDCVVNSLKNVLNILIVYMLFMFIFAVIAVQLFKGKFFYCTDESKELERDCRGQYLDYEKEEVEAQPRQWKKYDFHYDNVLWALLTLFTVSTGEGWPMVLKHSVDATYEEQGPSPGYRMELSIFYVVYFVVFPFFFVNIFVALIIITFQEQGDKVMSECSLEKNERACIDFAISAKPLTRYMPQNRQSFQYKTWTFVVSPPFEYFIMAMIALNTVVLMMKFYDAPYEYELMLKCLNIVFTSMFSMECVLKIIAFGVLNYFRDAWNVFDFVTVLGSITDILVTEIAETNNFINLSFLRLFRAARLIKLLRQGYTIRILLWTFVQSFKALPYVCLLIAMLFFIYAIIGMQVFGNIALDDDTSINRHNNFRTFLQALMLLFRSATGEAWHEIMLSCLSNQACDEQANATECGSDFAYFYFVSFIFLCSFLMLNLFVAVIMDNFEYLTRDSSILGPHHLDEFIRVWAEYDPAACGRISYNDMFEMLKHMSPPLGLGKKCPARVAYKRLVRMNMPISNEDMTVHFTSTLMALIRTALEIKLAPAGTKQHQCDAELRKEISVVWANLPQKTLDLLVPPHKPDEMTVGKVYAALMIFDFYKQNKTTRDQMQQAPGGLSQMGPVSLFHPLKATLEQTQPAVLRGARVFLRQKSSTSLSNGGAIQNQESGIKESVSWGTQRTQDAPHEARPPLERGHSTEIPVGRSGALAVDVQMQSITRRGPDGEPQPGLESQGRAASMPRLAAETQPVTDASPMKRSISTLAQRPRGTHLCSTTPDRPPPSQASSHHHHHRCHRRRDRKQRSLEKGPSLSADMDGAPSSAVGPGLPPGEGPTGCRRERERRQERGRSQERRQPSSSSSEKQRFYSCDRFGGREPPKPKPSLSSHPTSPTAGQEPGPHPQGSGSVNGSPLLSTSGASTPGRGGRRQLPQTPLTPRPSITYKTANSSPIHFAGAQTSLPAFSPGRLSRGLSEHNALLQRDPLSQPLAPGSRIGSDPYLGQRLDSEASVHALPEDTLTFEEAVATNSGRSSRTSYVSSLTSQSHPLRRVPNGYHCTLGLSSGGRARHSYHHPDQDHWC
T1 sequence (P54284 whole entry partner): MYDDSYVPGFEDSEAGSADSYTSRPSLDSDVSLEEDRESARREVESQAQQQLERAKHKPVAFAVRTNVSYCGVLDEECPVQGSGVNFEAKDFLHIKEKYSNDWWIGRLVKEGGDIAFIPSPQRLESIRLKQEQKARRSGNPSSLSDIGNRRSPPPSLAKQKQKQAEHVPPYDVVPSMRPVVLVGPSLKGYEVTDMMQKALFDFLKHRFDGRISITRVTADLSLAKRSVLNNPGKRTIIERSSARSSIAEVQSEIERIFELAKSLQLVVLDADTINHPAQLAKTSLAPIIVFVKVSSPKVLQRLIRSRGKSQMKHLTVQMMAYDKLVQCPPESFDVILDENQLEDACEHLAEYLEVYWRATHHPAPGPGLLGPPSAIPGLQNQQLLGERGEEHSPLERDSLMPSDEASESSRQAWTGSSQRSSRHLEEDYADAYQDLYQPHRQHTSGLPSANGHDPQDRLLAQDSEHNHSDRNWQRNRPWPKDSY
T1 sequence (P54289 25-956 partner limits assumed): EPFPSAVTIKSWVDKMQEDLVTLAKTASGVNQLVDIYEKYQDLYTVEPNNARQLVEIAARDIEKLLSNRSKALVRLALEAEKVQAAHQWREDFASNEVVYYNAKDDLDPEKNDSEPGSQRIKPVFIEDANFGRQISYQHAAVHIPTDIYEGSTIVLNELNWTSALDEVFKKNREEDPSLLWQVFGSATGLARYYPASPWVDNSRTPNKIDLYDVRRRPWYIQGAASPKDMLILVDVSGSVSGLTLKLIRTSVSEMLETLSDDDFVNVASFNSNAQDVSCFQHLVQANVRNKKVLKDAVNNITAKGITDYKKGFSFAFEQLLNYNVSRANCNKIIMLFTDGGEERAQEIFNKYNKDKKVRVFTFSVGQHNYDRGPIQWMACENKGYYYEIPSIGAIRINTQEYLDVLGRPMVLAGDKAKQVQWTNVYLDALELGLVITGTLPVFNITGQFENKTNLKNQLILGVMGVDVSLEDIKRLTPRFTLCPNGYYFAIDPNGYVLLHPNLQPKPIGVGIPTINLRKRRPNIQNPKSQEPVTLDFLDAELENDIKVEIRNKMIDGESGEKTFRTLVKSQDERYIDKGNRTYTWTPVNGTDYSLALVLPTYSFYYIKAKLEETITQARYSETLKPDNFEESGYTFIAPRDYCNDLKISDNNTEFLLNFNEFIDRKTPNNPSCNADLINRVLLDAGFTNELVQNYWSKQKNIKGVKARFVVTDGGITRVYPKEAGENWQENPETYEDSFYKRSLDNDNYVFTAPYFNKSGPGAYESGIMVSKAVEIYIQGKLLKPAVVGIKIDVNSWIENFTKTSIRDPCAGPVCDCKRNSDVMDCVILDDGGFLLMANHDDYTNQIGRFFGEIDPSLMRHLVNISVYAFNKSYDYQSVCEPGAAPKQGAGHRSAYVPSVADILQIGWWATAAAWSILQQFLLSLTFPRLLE
T1 sequence (P54289 957-1103 partner limits assumed): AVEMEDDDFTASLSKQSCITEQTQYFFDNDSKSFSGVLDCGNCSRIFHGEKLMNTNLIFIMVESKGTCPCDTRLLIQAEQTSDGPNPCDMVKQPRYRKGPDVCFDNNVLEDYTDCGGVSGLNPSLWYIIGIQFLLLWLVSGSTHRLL
Method: Unless noted otherwise, cell culture reagents were purchased from Life Technologies of Rockville, Md. IMR32 cells (American Type Culture Collection, ATCC, Manassas, Va.) were routinely cultured in growth medium consisting of minimum essential medium containing 10% fetal bovine serum (FBS, Hyclone, Logan, Utah), 100 U/mL penicillin, 100 μg/mL streptomycin, 2 mM L-glutamine, 1 mM sodium pyruvate, and 1×MEM non-essential amino acids. 80-90% confluent flasks of cells were differentiated using the following differentiation medium: Growth medium plus 1 mM dibutyryl cyclic AMP (Sigma, St. Louis, Mo.), and 2.5 μM bromodeoxyuridine (Sigma). Cells were differentiated for 8 days by replacing differentiation medium every 2-3 days.
One day prior to performing this assay, differentiated IMR32 cells were treated with 1× CellStripper, and seeded on poly-D-lysine-coated 96-well clear-bottom black plates (Becton Dickinson, Franklin Lakes, N.J.) at 200,000 cells/well. On the day of the assay, the cell plates were washed with IMR32 buffer (127 mM NaCl, 1 mM KCl, 2 mM MgCl2, 700 μM NaH2PO4, 5 mM CaCl2, 5 mM NaHCO3, 8 mM HEPES, 10 mM glucose, pH 7.4), then pre-stimulated with KCl and loaded as follows: 0.05 mL of IMR32 buffer, 0.05 mL of each compound tested diluted in IMR32 buffer containing 20 μM nitrendipine (Sigma), and 0.1 mL KCl dissolved in IMR32 buffer, plus Fluo-4 were added (3 μM final concentration, Molecular Probes, Eugene, Oreg.). Final test compound concentrations ranged from about 846 pM to about 17 μM, final nitrendipine concentration was 5 μM, and final KCl concentration was 90 mM. After 1 hour, the cells were washed twice with 0.05 mL of each compound tested in nitrendipine-containing IMR32 buffer (no KCl or Fluo-4), and then replaced with 0.1 mL of each compound tested in nitrendipine-containing IMR32 buffer. Plates were then transferred to a Fluorimetric Imaging Plate Reader (FLIPR^96, Molecular Devices, Inc., Sunnyvale, Calif.) for assay. The FLIPR measured basal Fluo-4 fluorescence for 315 seconds (i.e., 5 minutes and 15 seconds), then added 0.1 mL KCl agonist dissolved in IMR32 buffer and measured fluorescence for another 45 seconds. Final test compound concentrations on the cells after FLIPR read ranged from about 846 pM to about 17 μM, final nitrendipine concentration was 5 μM, and final KCl concentration was 90 mM. Data were collected over the entire time course and analyzed using Excel, Graph Pad Prism (version 3.02, Graph Pad, San Diego, Calif.), or Activity Base (version 5.1, IDBS, Parsippany, N.J.) software.
N-type calcium channel expressing HEK-293 cells were created in two stages. Stage 1 was created as follows. The rat α1b, and β3 cDNA expression constructs (2.5 μg each) were co-transfected into human embryonic kidney (HEK-293) cells by Lipofectamine Plus reagent (Invitrogen), as per manufacturer's instructions. 24 hours later, cells were split in limiting dilution into multiple 96-well plates in selection media containing 20 μg/mL blasticidin and 500 μg/mL geneticin, and incubated for 3 weeks at 37° C., 5% CO2, 95% humidity. Plates containing ≦1 clone per well were cultured until wells positive for single clones were confluent. Individual clones were then arrayed into columns of a destination 96-well plate, and partly split into 6-well plates for culture maintenance. Array plates were washed once with IMR32 buffer and cells loaded for 1 hour with 0.1 mL of IMR32 buffer containing Fluo-4 (3 μM final concentration, Molecular Probes). Then they were washed twice with 0.1 mL of IMR32 buffer, and replaced with 0.1 mL IMR32 buffer. Plates were then transferred to a FLIPR^96 for assay. The FLIPR measured basal Fluo-4 fluorescence for 315 seconds, then added 0.1 mL KCl agonist dissolved in IMR32 buffer and measured fluorescence for another 45 seconds. Final KCl concentration was 90 mM. Data were collected over the entire time course and analyzed using Excel, Graph Pad Prism, or Activity Base software. […]

[2] = biological target: T2, L-type calcium channel (LTCC) (Rattus norvegicus, UniProt P22002); assay: FLIPR calcium mobilization (and/or electrophysiological) assay for L-type calcium channel; type: cell-based; settings: calcium mobilization and/or electrophysiological in vitro assay; differentiated A7r5 cells, 90 mM KCl
T2 construct: differentiated A7r5 cells were trypsinized, then seeded on tissue culture treated 96-well clear-bottom black plates; endogenous in cells; host or cells: differentiated A7r5 cells (ATCC)
Method: A7r5 (ATCC) cells were maintained and routinely cultured in A7r5 growth medium consisting of Dulbecco's Modified Eagles Medium containing 10% FBS, 100 U/mL penicillin, 100 μg/mL streptomycin, 4 mM L-glutamine, and 0.15% sodium bicarbonate. 80-90% confluent flasks of cells were differentiated using the following differentiation medium: A7r5 Growth Medium plus 1 mM dibutyryl cyclic AMP (Sigma). Cells were differentiated for 8 days by replacing differentiation medium every 2-3 days.
One day prior to performing this assay, differentiated A7r5 cells were trypsinized, then seeded on tissue culture treated 96-well clear-bottom black plates (Becton Dickinson, Franklin Lakes, N.J.) at a dilution of 1:1 from a confluent T150 cm^2 flask. On the day of the assay, the plates were washed with A7r5 wash buffer (127 mM NaCl, 2 mM MgCl2, 700 μM NaH2PO4, 5 mM CaCl2, 5 mM NaHCO3, 8 mM HEPES, 10 mM glucose, pH 7.4), then loaded with 0.1 mL of A7r5 wash buffer containing Fluo-4 (3 μM final concentration, Molecular Probes, Eugene, Oreg.). After 1 hour, the cells were washed with 0.1 mL A7r5 wash buffer and resuspended in 0.05 mL A7r5 assay buffer that was composed of A7r5 wash buffer plus 50 μM valinomycin (Sigma). Plates were then transferred to a FLIPR^96 for assay. The FLIPR measured basal Fluo-4 fluorescence for 15 seconds, then added 0.05 mL of each compound tested diluted in A7r5 assay buffer at final concentrations ranging from about 846 pM to about 17 μM. Fluo-4 fluorescence was then measured for 5 minutes. 0.1 mL KCl agonist dissolved in A7r5 assay buffer was then added to the cells to produce a final concentration of 90 mM KCl, and fluorescence was measured for another 45 seconds. Data were collected over the entire time course and analyzed using Excel, Graph Pad Prism, or Activity Base software.

Row | pIC50 [1] | pIC50 [2] | Structure (SMILES)
1 | 5.58 | – | CN[C@@H](CC(C)C)C(=O)N1CCC(N(C2CC2)S(=O)(=O)c2cccc(Cl)c2)CC1 [(2S) N-cyclopropyl-N-[1-(4-methyl-2-methylaminopentanoyl)-piperidin-4-yl]-3-chlorobenzenesulfonamide]
2 | 5.37 | – | CN[C@@H](CC(C)C)C(=O)N1CCC(N(C2CC2)S(=O)(=O)c2cccc(C#N)c2)CC1 [(2S) N-cyclopropyl-N-[1-(4-methyl-2-methylaminopentanoyl)-piperidin-4-yl]-3-cyanobenzenesulfonamide]
3 | 5.33 | – | CN[C@@H](CC(C)C)C(=O)N1CCC(N(C2CC2)S(=O)(=O)c2cccc(F)c2)CC1 [(2S) N-cyclopropyl-N-[1-(4-methyl-2-methylaminopentanoyl)-piperidin-4-yl]-3-fluorobenzenesulfonamide]
4 | 5.14 | – | CN[C@@H](CC(C)C)C(=O)N1CCC(N(C2CC2)S(=O)(=O)c2cccc(OC)c2)CC1 [(2S) N-cyclopropyl-N-[1-(4-methyl-2-methylaminopentanoyl)-piperidin-4-yl]-3-methoxybenzenesulfonamide]
5 | 5.08 | – | CN[C@@H](CC(C)C)C(=O)N1CCC(N(C2CC2)S(=O)(=O)c2cccc(C)c2)CC1 [(2S) N-cyclopropyl-N-[1-(4-methyl-2-methylaminopentanoyl)-piperidin-4-yl]-3-methylbenzenesulfonamide]
6 | 5.44 | – | CN[C@@H](CC(C)C)C(=O)N1CCC(N(C2CC2)S(=O)(=O)c2cccc([N+](=O)[O-])c2)CC1 [(2S) N-cyclopropyl-N-[1-(4-methyl-2-methylaminopentanoyl)-piperidin-4-yl]-3-nitrobenzenesulfonamide]
7 | 5.90 | – | CN[C@@H](CC(C)C)C(=O)N1CCC(N(CCC(C)C)S(=O)(=O)c2cccc(C(F)(F)F)c2)CC1 [(2S) N-i-pentyl-N-[1-(4-methyl-2-methylaminopentanoyl)piperidin-4-yl]-3-trifluoromethylbenzenesulfonamide]
8 | 5.92 | – | CCCC=CC(=O)N1CCC(N(C2CC2)S(=O)(=O)c2cccc(C(F)(F)F)c2)CC1 [N-Cyclopropyl-N-(1-hex-2-enoyl-piperidin-4-yl)-3-trifluoromethylbenzenesulfonamide]
9 | 5.80 | – | O=C(C1Cc2ccccc2CN1)N1CCC(N(C2CC2)S(=O)(=O)c2cccc(C(F)(F)F)c2)CC1 (stereo not drawn) [N-Cyclopropyl-N-[1-(1,2,3,4-tetrahydroisoquinolin-3-carbonyl)piperidin-4-yl]-3-trifluoromethylbenzenesulfonamide]
10 | 5.86 | – | CN1CCCC1C(=O)N1CCC(N(C2CC2)S(=O)(=O)c2cccc(C(F)(F)F)c2)CC1 (stereo not drawn) [N-Cyclopropyl-N-[1-(N-methylpyrrolidin-2-carbonyl)piperidin-4-yl]-3-trifluoromethylbenzenesulfonamide]
11 | 5.97 | – | NC1(C(=O)N2CCC(N(C3CC3)S(=O)(=O)c3cccc(C(F)(F)F)c3)CC2)CCCC1 [N-[1-(1-Aminocyclopentan-1-carbonyl)piperidin-4-yl]-N-cyclopropyl-3-trifluoromethylbenzenesulfonamide]
12 | 5.21 | – | O=C(CCC(=O)N1CCC(N(C2CC2)S(=O)(=O)c2ccccc2)CC1)c1ccc(F)cc1 [N-cyclopropyl-N-{1-[4-(4-fluorophenyl)-4-oxobutanoyl]piperidin-4-yl}benzenesulfonamide]

The next lines start with the compound.

Row | Structure (SMILES) | pIC50 [1] | pIC50 [2]
13 | N[C@@H](C(=O)N1CCC(N(C2CC2)S(=O)(=O)c2cccc(C(F)(F)F)c2)CC1)C1CCCCC1 [(2R) N-[1-(2-Amino-2-cyclohexylethanoyl)piperidin-4-yl]-N-cyclopropyl-3-trifluoromethylbenzenesulfonamide] | 6.36 | < 4.70
14 | CN[C@@H](CC(C)C)C(=O)N1CCC(N(CCO)S(=O)(=O)c2cccc(C(F)(F)F)c2)CC1 [(2S) N-(2-Hydroxyethyl)-N-[1-(4-methyl-2-methylamino-pentanoyl)piperidin-4-yl]-3-trifluoromethylbenzenesulfonamide hydrochloride] | 5.65 | –
15 | CN[C@@H](CC(C)C)C(=O)N1CCC(N(CCOC)S(=O)(=O)c2cccc(C(F)(F)F)c2)CC1 [(2S) N-(2-methoxyethyl)-N-[1-(4-methyl-2-methylaminopentanoyl)-piperidin-4-yl]-3-trifluoromethylbenzenesulfonamide] | 5.91 | –
16 | CN[C@@H](CC(C)C)C(=O)N1CCC(N(C2CCCC2)S(=O)(=O)c2cccc(C(F)(F)F)c2)CC1 [(2S) N-Cyclopentyl-N-[1-(4-methyl-2-methylamino-pentanoyl)piperidin-4-yl]-3-trifluoromethylbenzenesulfonamide fumarate] | 5.81 | –
17 | CN[C@@H](CC(C)C)C(=O)N1CCC(N(C2CC2)S(=O)(=O)c2cccc(OC(F)F)c2)CC1 [(2S) N-Cyclopropyl-N-[1-(4-methyl-2-methylaminopentanoyl)-piperidin-4-yl]-3-difluoromethoxybenzenesulfonamide] | 5.61 | –
18 | CN[C@@H](CC(C)C)C(=O)N1CCC(N(CC2CC2)S(=O)(=O)c2cccc(C(F)(F)F)c2)CC1 [(2S) N-Cyclopropylmethyl-N-[1-(4-methyl-2-methylamino-pentanoyl)piperidin-4-yl]-3-trifluoromethylbenzenesulfonamide fumarate] | 5.88 | –
19 | CN[C@@H](CC(C)C)C(=O)N1CCC(N(C2CCOC2)S(=O)(=O)c2cccc(C(F)(F)F)c2)CC1 (stereo partly drawn) [(2S) N-[1-(4-Methyl-2-methylaminopentanoyl)piperidin-4-yl]-N-(tetrahydrofuran-3-yl)-3-trifluoromethylbenzenesulfonamide fumarate] | 5.74 | –
20 | CN[C@@H](CC(C)C)C(=O)N1CCC(N(C[C@@H]2CCCO2)S(=O)(=O)c2cccc(C(F)(F)F)c2)CC1 [(2S) N-[1-(4-methyl-2-methylaminopentanoyl)piperidin-4-yl]-N-(tetrahydrofuran-2-yl)methyl-3-trifluoromethylbenzenesulfonamide] | 5.30 | –
